Laboratory results: patent US5756345A, “Production of tryptophan by the bacterium Escherichia coli” (Degussa Aktiengesellschaft, priority 1995, dated 1998)
Where two headings read alike, the source gives them in different places.

Tests used:
[1] = target: T1, anthranilate synthase encoded by trpE476 (Escherichia coli, UniProt P00895); experiment: Feedback inhibition of anthranilate synthase by tryptophan, trpE476 enzyme; format: biochemical
T1 construct: plasmid pMU3019 in trpE-deleted JP6768 (trpDCBA functional), also trpE476DCBA on pMU91
Source text: Plasmid pMU3018 (FIG. 6) carries the tip promoter, the trpE gene and part of the trpD gene on a 2.9 kb SmaI HindIII fragment. pMU3018 is derived from pMU578, which is a single-copy Tp^R plasmid carrying a galK'-lac'ZA fusion, similar to the promoter cloning vector pMU575 (Andrews, A. E., B. Lawley, and A. J. Pittard. (1991). J. Bacteriol. 173: 5068-5078), but with a SmaI EcoRI BglII linker replacing the SmaI site, and the DraI fragments removed, deleting lacY and lacA. If pMU3018 DNA is digested with these two enzymes and the fragments electrophoresed in a low melting point agarose gel it is a simple matter to separate and purify the trpEtrpD' 2.9 kb fragment and the larger 13 kb vector fragment. This 2.9 kb fragment was mutagenised with 50 mM nitrous acid for 60 minutes following the method of Ray et al. (Ray, J. M., C. Yanofsky and R. Bauerle. (1988). J. Bacteriol. 170: 5500-5506), except that spermine (1 mM) was added to the mutagenesis mixture. After mutagenesis, the fragment was religated with the larger 13 kb fragment and the products of ligation were transformed into strain JP6768, an E. coli strain which is trpR^-, and in which the trpE gene has been deleted from the chromosome but trpDCB and A are fully functional (ΔtrpLE1413 (Miozzari, G. F. and C. Yanofsky. (1978). J. Bacteriol. 133: 1457-1466). Approximately 2,000 transformants were selected on Luria agar containing trimethoprim. These were screened for growth on minimal medium supplemented with the tryptophan analogue 5-fluorotryptophan at 15 mM. Clones which grew were potential feedback-resistant mutants altered in the enzyme anthranilate synthase. The anthranilate synthase activity of each of these clones was assayed in the presence of very high levels of tryptophan (13.5 g/l) using the assay described in Cho, K-O. and C. Yanofsky. (1988). J. Mol. Biol. 204: 41-50. […] The mutant allele present in this strain was called trpE483. […] FIG. 4 compares the feedback sensitivity of anthranilate synthase from a strain with the wild-type allele (JP6768/pMU3018) and strains with the trpE483 allele (JP6768/pMU3025) and with the trpE476 allele (JP6768/pMU3019).
The effect of temperature of incubation on both stability and productivity for an overproducing strain carrying the trpS378 allele and a plasmid carrying the trp operon encoding a feedback-resistant anthranilate synthase, is shown in FIG. 2. Low temperatures favour high stability and low productivity, whilst higher temperatures favour productivity at the expense of stability. […] The data in FIG. 2 is for JP6015/pMU91 and the primary selection is for Ser^+. JP6015 is derived from JP4153 (see Example 4) by introduction of sac^+ by transduction,and introduction of serA^- by cotransduction with a closely linked Tn10 transposon, and subsequent selection of a tetracycline sensitive derivative. pMU91 is a plasmid derived from pSC101 (Cohen, S. N. and A. C. Chang (1977). J. Bacteriol. 132: 734-737), carrying Tc^R, trpE476DCBA and serA^+ (see FIG. 9). The trpE476DCBA alelle was isolated using the specialized transducing phage .PHI.80pt190h (Herschfield, V. et al (1974). Proc. Natl. Acad. Sci. USA 71:3455-3459). A trpE^- strain carrying .PHI.80pt190h was plated on minimal medium containing 1 mM 5-methyltryptophan (5MT). A pool of cells was induced by ultraviolet light to produce a lysate which was used in a subsequent transduction, selecting Trp^+ 5MTR transductants. […]

[2] = target: anthranilate synthase encoded by trpE382 (Escherichia coli, UniProt P00895); experiment: Feedback inhibition of anthranilate synthase by tryptophan, trpE382 enzyme; format: biochemical
[3] = target: anthranilate synthase encoded by trpE483 (Escherichia coli, UniProt P00895); experiment: Feedback inhibition of anthranilate synthase by tryptophan, trpE483 enzyme; format: biochemical; settings: tryptophan 13.5 g/l
Source text: Plasmid pMU3018 (FIG. 6) carries the tip promoter, the trpE gene and part of the trpD gene on a 2.9 kb SmaI HindIII fragment. pMU3018 is derived from pMU578, which is a single-copy Tp^R plasmid carrying a galK'-lac'ZA fusion, similar to the promoter cloning vector pMU575 (Andrews, A. E., B. Lawley, and A. J. Pittard. (1991). J. Bacteriol. 173: 5068-5078), but with a SmaI EcoRI BglII linker replacing the SmaI site, and the DraI fragments removed, deleting lacY and lacA. If pMU3018 DNA is digested with these two enzymes and the fragments electrophoresed in a low melting point agarose gel it is a simple matter to separate and purify the trpEtrpD' 2.9 kb fragment and the larger 13 kb vector fragment. This 2.9 kb fragment was mutagenised with 50 mM nitrous acid for 60 minutes following the method of Ray et al. (Ray, J. M., C. Yanofsky and R. Bauerle. (1988). J. Bacteriol. 170: 5500-5506), except that spermine (1 mM) was added to the mutagenesis mixture. […]

[4] = tested on: tryptophan auxotroph unable to actively transport tryptophan (JP7847); experiment: Growth response to tryptophan, trpS+ auxotroph defective in active transport; format: cell-based, Escherichia coli; settings: minimal medium
Source text: (§1) JP6006 is derived from JP4153 by introduction of ΔtrpLE1413 by P1 transduction using TN10 as a linked marker and isolation of a tetracycline-sensitive derivative, followed by introduction of sac^+ by P1 transduction, using a P1 lysate grown on sac^+ strain GA122 (Alaeddinoglu, N. G. and H. P. Charles. (1979). J. Gen. Microbiol. 110: 47-59). JP4153 is aroF363 aroG103(FBR) aroH371(FBR) trpE382(FBR) trpR363 tyrR366 trpS378 aroP579 mtr-24 tna-1. JP7847 is a trpS^+ derivative of JP6006, isolated by P1 transduction.
(§2) Cells were grown in minimal medium supplemented with different levels of tryptophan at 30° C. Growth was measured by optical density with a Klett colorimeter and doubling times were calculated from the exponential phase of each growth curve.

[5] = tested on: transport negative tryptophan auxotroph carrying trpS378 (JP6006); experiment: Growth response to tryptophan, trpS378 auxotroph defective in active transport; format: cell-based, Escherichia coli
Source text: as §1, §2

[6] = tested on: tryptophan auxotrophs with wild-type trpS allele able to actively transport tryptophan; experiment: Growth response to tryptophan, auxotrophs with wild-type trpS and active transport; format: cell-based, Escherichia coli; settings: minimal medium
[7] = tested on: anthranilate synthase (wild-type strains); settings: read-out: tryptophan concentration giving about 50% inhibition of anthranilate synthase activity; cited from earlier work
[8] = tested on: anthranilate synthase of feedback-resistant mutants; settings: cited from earlier work

Question: Which inhibition of activity ([1]; 1 mM tryptophan) does the source give for N[C@@H](Cc1c[nH]c2ccccc12)C(=O)O [tryptophan, L-tryptophan] here?
Answer: less than 10%

Question: What about the “anthranilate synthase activity, % of full activity” value ([1]; 10 mM L-tryptophan) of the same compound?
Answer: 70%

Question: What about the “resistance to feedback inhibition” value ([1]; tryptophan 1 g/l) of the same compound?
Answer: good resistance

Question: And the “inhibition of anthranilate synthase” value ([1]; tryptophan 12 g/l (60 mM))?
Answer: 60-80%

Question: And the inhibition of activity ([1]; tryptophan 13.5 g/l)?
Answer: more than 60%

Question: What about the inhibition of activity ([2]; 1 mM tryptophan) of the same compound?
Answer: less than 10%

Question: What about the “inhibition of anthranilate synthase” value ([2]; tryptophan 12 g/l (60 mM)) of the same compound?
Answer: 60-80%

Question: And the inhibition of activity [3]?
Answer: less than 10%

Question: And the “tryptophan level required for optimal growth” value [4]?
Answer: ~ 10^-3 M

Question: And the “tryptophan level at which the strain grows with a normal doubling time” value ([4]; FIG. 1)?
Answer: ≥ 1 mM

Question: What about the “tryptophan required for good growth” value ([5]; 30° C., FIG. 1) of the same compound?
Answer: at least 5 mM

Question: And the “tryptophan concentration before maximum growth rate is achieved” value ([5]; minimal medium)?
Answer: 5 mM

Question: And the “tryptophan level supporting growth at a fast rate” value [6]?
Answer: 50 µM

Question: What about the IC50 [7] of the same compound?
Answer: ~0.02 mM

Question: And the IC50 ([8]; mutants conferring higher feedback-resistance (Aiba et al. 1982), read-out: 50% inhibition values)?
Answer: > 20 mM

Question: And the IC50 ([8]; mutants typically chosen for tryptophan overproduction (Aiba et al., CA 1182409), read-out: tryptophan concentration at which the 50% inhibition figure occurred)?
Answer: ~13 mM
